Test results reported in patent publication US7687456B2, “Compounds for enzyme inhibition” (Proteolix, Inc., priority 2005, dated 2010).

Tested on: proteasome CT-L activity
Experiment: Proteasome CT-L inhibition in blood of mice one hour after oral dosing
Assay type: in vivo
Settings: one hour post-dosing, blood lysate, substrate LLVY-AMC, relative to vehicle-dosed cohort
Method: Compounds were formulated in 10% PS80/NaCitrate (pH 3) vehicle and administered to mice orally (PO) (3 animals/cohort). One hour post-dosing, the animals were sacrificed and the following tissues harvested: blood, brain, adrenal gland, heart and liver. Whole blood (˜200 μl) was washed twice with PBS and lysed by hypotonic shock (300 μl 50 mM Tris pH 8, 5 mM EDTA). Blood lysates were stored at −80° C. until assayed. Blood lysates were clarified by centrifugation in a microcentrifuge. The CT-L specific activity of proteasome in each lysate was evaluated by determining: a) the protein concentration by modified Bradford assay with bovine gamma globulin as a standard; and b) the rate of cleavage of the fluorogenic proteasome substrate LLVY-AMC. The percent proteasome activity for the analog-treated animals was calculated by dividing of the average specific activity for each analog-dosed cohort by the average specific activity of the vehicle-dosed cohort. Percent proteasome inhibition was calculated by subtracting percent proteasome activity from 100. Equivalents

COC[C@H](NC(=O)c1cc(C)on1)C(=O)N[C@@H](Cc1ccccc1)C(=O)N[C@@H](CC(C)C)C(=O)[C@@]1(C)CO1 [Compound 010]
proteasome CT-L inhibition (40 mg/kg PO): > 90%

CC(C)C[C@H](NC(=O)c1cc(CN2CCOCC2)on1)C(=O)N[C@@H](Cc1ccccc1)C(=O)N[C@@H](CC(C)C)C(=O)[C@@]1(C)CO1 [Compound 023]
proteasome CT-L inhibition (40 mg/kg PO): > 80%

COC[C@H](NC(=O)c1cc(C)on1)C(=O)N[C@H](C(=O)N[C@@H](CC(C)C)C(=O)[C@@]1(C)CO1)C(C)C [Compound 029]
proteasome CT-L inhibition (20 mg/kg PO): > 70%

CC(C)C[C@H](NC(=O)c1cc(CN2CCOCC2)on1)C(=O)N[C@@H](Cc1cscn1)C(=O)N[C@@H](CC(C)C)C(=O)[C@@]1(C)CO1 [Compound 035]
proteasome CT-L inhibition (40 mg/kg PO): > 90%

COC[C@H](NC(=O)c1cc(C)on1)C(=O)N[C@@H](Cc1cscn1)C(=O)N[C@@H](CC(C)C)C(=O)[C@@]1(C)CO1 [Compound 039]
proteasome CT-L inhibition (20 mg/kg PO): > 75%

COC[C@H](NC(=O)c1cc(C)on1)C(=O)N[C@@H](C)C(=O)N[C@@H](CC(C)C)C(=O)[C@@]1(C)CO1 [Compound 045]
proteasome CT-L inhibition (20 mg/kg PO): > 80%

Cc1cc(C(=O)N[C@@H](Cc2ccccn2)C(=O)N[C@@H](Cc2ccccc2)C(=O)N[C@@H](CC(C)C)C(=O)[C@@]2(C)CO2)no1 [Compound 055]
proteasome CT-L inhibition (20 mg/kg PO): > 80%

CC(C)C[C@H](NC(=O)[C@H](Cc1ccccc1)NC(=O)[C@@H](NC(=O)c1cc(CN2CCOCC2)on1)C(C)C)C(=O)[C@@]1(C)CO1 [Compound 061]
proteasome CT-L inhibition (40 mg/kg PO): > 80%

COCC[C@H](NC(=O)c1cc(C(C)C)on1)C(=O)N[C@@H](Cc1ccccc1)C(=O)N[C@@H](CC(C)C)C(=O)[C@@]1(C)CO1 [Compound 068]
proteasome CT-L inhibition (40 mg/kg PO): > 70%

COC[C@H](NC(=O)c1cc(C)on1)C(=O)N[C@@H](COC)C(=O)N[C@@H](CC(C)C)C(=O)[C@@]1(C)CO1 [Compound 075]
proteasome CT-L inhibition (20 mg/kg PO): > 80%

COC[C@H](NC(=O)c1ccon1)C(=O)N[C@@H](COC)C(=O)N[C@@H](CC(C)C)C(=O)[C@@]1(C)CO1 [Compound 083]
proteasome CT-L inhibition (20 mg/kg PO): > 80%

COC[C@H](NC(=O)c1cc(C)no1)C(=O)N[C@@H](COC)C(=O)N[C@@H](CC(C)C)C(=O)[C@@]1(C)CO1 [Compound 085]
proteasome CT-L inhibition (20 mg/kg PO): > 50%

COC[C@H](NC(=O)c1cc(C)on1)C(=O)N[C@@H](COC)C(=O)N[C@@H](Cc1ccccc1)C(=O)[C@@]1(C)CO1 [Compound 088]
proteasome CT-L inhibition (20 mg/kg PO): > 80%

COC[C@H](NC(=O)c1cc(C)on1)C(=O)N[C@@H](COC)C(=O)N[C@@H](Cc1ccc(F)cc1)C(=O)[C@@]1(C)CO1 [Compound 091]
proteasome CT-L inhibition (20 mg/kg PO): > 80%
